Measured values from the supplement of paper PMC10307832.

Assays:
Experiment in all cases: relative viability (nuclei count vs DMSO), 5 days (fraction); higher = more cells survive
NCI-H1650 = tested on: NCI-H1650
Outline: (§1)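 Five library-drug doses in √10 steps were combined with a fixed anchor-drug dose, or a single drug was given alone, by pin tool to lung cancer cell lines in 1536-well plates the day after seeding. Nuclei were stained and counted after 5 days. Relative viability is the nuclei count in treated wells over that in vehicle wells, taken as the median of duplicate plates.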

LU99A = tested on: LU99A
Outline: as §1

LK-2 = tested on: LK-2
Outline: as §1

PC-14 = tested on: PC-14
Outline: as §1

COR-L23 = tested on: COR-L23
Outline: as §1

NCI-H727 = tested on: NCI-H727
Outline: as §1

NCI-H1437 = tested on: NCI-H1437
Outline: as §1

NCI-H1666 = tested on: NCI-H1666
Outline: as §1

COR-L 105 = tested on: COR-L 105
Outline: as §1

NCI-H838 = tested on: NCI-H838
Outline: as §1

CAL-12T = tested on: CAL-12T
Outline: as §1

NCI-H2170 = tested on: NCI-H2170
Outline: as §1

NCI-H2009 = tested on: NCI-H2009
Outline: as §1

HCC-366 = tested on: HCC-366
Outline: as §1

HARA = tested on: HARA
Outline: as §1

201T = tested on: 201T
Outline: as §1

EKVX = tested on: EKVX
Outline: as §1

NCI-H441 = tested on: NCI-H441
Outline: as §1

BEN = tested on: BEN
Outline: as §1

NCI-H3122 = tested on: NCI-H3122
Outline: as §1

Question: Which relative viability (NCI-H1650; first compound 0.01 µM) does the source give for `NC(=O)Nc1cc(-c2cccc(F)c2)sc1C(=O)N[C@H]1CCCNC1` [AZD7762] + CC1(C)CCC(c2ccc(Cl)cc2)=C(CN2CCN(c3ccc(C(=O)NS(=O)(=O)c4ccc(N[C@H](CCN5CCOCC5)CSc5ccccc5)c(S(=O)(=O)C(F)(F)F)c4)cc3)CC2)C1 [Navitoclax] (partner 0.5 µM) here?
Answer: 1.33

Question: And the relative viability (NCI-H1650; first compound 0.03162 µM)?
Answer: 1.42

Question: And the relative viability (NCI-H1650; first compound 0.1 µM)?
Answer: 1.22

Question: And the relative viability (NCI-H1650; first compound 0.3162 µM)?
Answer: 0.917

Question: And the relative viability (NCI-H1650; first compound 1 µM)?
Answer: 0.327

Question: And the relative viability (LU99A; first compound 0.01 µM)?
Answer: 0.81

Question: What about the relative viability (LU99A; first compound 0.03162 µM) of the same compound?
Answer: 0.869

Question: What about the relative viability (LU99A; first compound 0.1 µM) of the same compound?
Answer: 0.718

Question: What about the relative viability (LU99A; first compound 0.3162 µM) of the same compound?
Answer: 0.665

Question: What about the relative viability (LU99A; first compound 1 µM) of the same compound?
Answer: 0.514

Question: What about the relative viability (LK-2; first compound 0.01 µM) of the same compound?
Answer: 0.849

Question: And the relative viability (LK-2; first compound 0.03162 µM)?
Answer: 0.822

Question: And the relative viability (LK-2; first compound 0.1 µM)?
Answer: 0.838

Question: What about the relative viability (LK-2; first compound 0.3162 µM) of the same compound?
Answer: 0.756

Question: What about the relative viability (LK-2; first compound 1 µM) of the same compound?
Answer: 0.607

Question: And the relative viability (PC-14; first compound 0.01 µM)?
Answer: 1.09

Question: And the relative viability (PC-14; first compound 0.03162 µM)?
Answer: 1.02

Question: And the relative viability (PC-14; first compound 0.1 µM)?
Answer: 1.02

Question: And the relative viability (PC-14; first compound 0.3162 µM)?
Answer: 0.895

Question: And the relative viability (PC-14; first compound 1 µM)?
Answer: 0.512

Question: What about the relative viability (COR-L23; first compound 0.01 µM) of the same compound?
Answer: 1.28

Question: What about the relative viability (COR-L23; first compound 0.03162 µM) of the same compound?
Answer: 1.01

Question: And the relative viability (COR-L23; first compound 0.1 µM)?
Answer: 1.01

Question: What about the relative viability (COR-L23; first compound 0.3162 µM) of the same compound?
Answer: 0.891

Question: What about the relative viability (COR-L23; first compound 1 µM) of the same compound?
Answer: 0.194

Question: And the relative viability (NCI-H727; first compound 0.01 µM)?
Answer: 0.456

Question: And the relative viability (NCI-H727; first compound 0.03162 µM)?
Answer: 0.54

Question: What about the relative viability (NCI-H727; first compound 0.1 µM) of the same compound?
Answer: 0.397

Question: What about the relative viability (NCI-H727; first compound 0.3162 µM) of the same compound?
Answer: 0.318

Question: What about the relative viability (NCI-H727; first compound 1 µM) of the same compound?
Answer: 0.111

Question: And the relative viability (NCI-H1437; first compound 0.01 µM)?
Answer: 1.09

Question: And the relative viability (NCI-H1437; first compound 0.03162 µM)?
Answer: 1.04

Question: What about the relative viability (NCI-H1437; first compound 0.1 µM) of the same compound?
Answer: 1.07

Question: What about the relative viability (NCI-H1437; first compound 0.3162 µM) of the same compound?
Answer: 1.08

Question: What about the relative viability (NCI-H1437; first compound 1 µM) of the same compound?
Answer: 1.05

Question: What about the relative viability (NCI-H1666; first compound 0.01 µM) of the same compound?
Answer: 1.24

Question: What about the relative viability (NCI-H1666; first compound 0.03162 µM) of the same compound?
Answer: 1.36

Question: And the relative viability (NCI-H1666; first compound 0.1 µM)?
Answer: 1.23

Question: What about the relative viability (NCI-H1666; first compound 0.3162 µM) of the same compound?
Answer: 0.797

Question: What about the relative viability (NCI-H1666; first compound 1 µM) of the same compound?
Answer: 0.661

Question: What about the relative viability (COR-L 105; first compound 0.01 µM) of the same compound?
Answer: 0.694

Question: What about the relative viability (COR-L 105; first compound 0.03162 µM) of the same compound?
Answer: 0.768

Question: And the relative viability (COR-L 105; first compound 0.1 µM)?
Answer: 0.671

Question: And the relative viability (COR-L 105; first compound 0.3162 µM)?
Answer: 0.527

Question: And the relative viability (COR-L 105; first compound 1 µM)?
Answer: 0.463

Question: What about the relative viability (NCI-H838; first compound 0.01 µM) of the same compound?
Answer: 1.19

Question: And the relative viability (NCI-H838; first compound 0.03162 µM)?
Answer: 1.15

Question: And the relative viability (NCI-H838; first compound 0.1 µM)?
Answer: 1.09

Question: And the relative viability (NCI-H838; first compound 0.3162 µM)?
Answer: 1.03

Question: And the relative viability (NCI-H838; first compound 1 µM)?
Answer: 0.576

Question: What about the relative viability (CAL-12T; first compound 0.01 µM) of the same compound?
Answer: 1.23

Question: And the relative viability (CAL-12T; first compound 0.03162 µM)?
Answer: 1.18

Question: What about the relative viability (CAL-12T; first compound 0.1 µM) of the same compound?
Answer: 1.24

Question: And the relative viability (CAL-12T; first compound 0.3162 µM)?
Answer: 1.09

Question: And the relative viability (CAL-12T; first compound 1 µM)?
Answer: 0.169

Question: And the relative viability (NCI-H2170; first compound 0.01 µM)?
Answer: 0.62

Question: And the relative viability (NCI-H2170; first compound 0.03162 µM)?
Answer: 0.702

Question: And the relative viability (NCI-H2170; first compound 0.1 µM)?
Answer: 0.577

Question: And the relative viability (NCI-H2170; first compound 0.3162 µM)?
Answer: 0.653

Question: What about the relative viability (NCI-H2170; first compound 1 µM) of the same compound?
Answer: 0.584

Question: And the relative viability (NCI-H2009; first compound 0.01 µM)?
Answer: 1.27

Question: What about the relative viability (NCI-H2009; first compound 0.03162 µM) of the same compound?
Answer: 1.19

Question: What about the relative viability (NCI-H2009; first compound 0.1 µM) of the same compound?
Answer: 1.25

Question: And the relative viability (NCI-H2009; first compound 0.3162 µM)?
Answer: 1.13

Question: What about the relative viability (NCI-H2009; first compound 1 µM) of the same compound?
Answer: 1.08

Question: And the relative viability (HCC-366; first compound 0.01 µM)?
Answer: 1.1

Question: And the relative viability (HCC-366; first compound 0.03162 µM)?
Answer: 1.09

Question: And the relative viability (HCC-366; first compound 0.1 µM)?
Answer: 1.06

Question: What about the relative viability (HCC-366; first compound 0.3162 µM) of the same compound?
Answer: 0.687

Question: What about the relative viability (HCC-366; first compound 1 µM) of the same compound?
Answer: 0.165

Question: And the relative viability (HARA; first compound 0.01 µM)?
Answer: 1.12

Question: What about the relative viability (HARA; first compound 0.03162 µM) of the same compound?
Answer: 1.15

Question: And the relative viability (HARA; first compound 0.1 µM)?
Answer: 1.2

Question: What about the relative viability (HARA; first compound 0.3162 µM) of the same compound?
Answer: 1.12

Question: What about the relative viability (HARA; first compound 1 µM) of the same compound?
Answer: 0.801

Question: What about the relative viability (201T; first compound 0.01 µM) of the same compound?
Answer: 1.18

Question: What about the relative viability (201T; first compound 0.03162 µM) of the same compound?
Answer: 1.23

Question: And the relative viability (201T; first compound 0.1 µM)?
Answer: 1.21

Question: And the relative viability (201T; first compound 0.3162 µM)?
Answer: 1.25

Question: And the relative viability (201T; first compound 1 µM)?
Answer: 1.27

Question: And the relative viability (EKVX; first compound 0.01 µM)?
Answer: 0.954

Question: And the relative viability (EKVX; first compound 0.03162 µM)?
Answer: 0.863

Question: What about the relative viability (EKVX; first compound 0.1 µM) of the same compound?
Answer: 0.918

Question: What about the relative viability (EKVX; first compound 0.3162 µM) of the same compound?
Answer: 0.596

Question: And the relative viability (EKVX; first compound 1 µM)?
Answer: 0.574

Question: And the relative viability (NCI-H441; first compound 0.01 µM)?
Answer: 0.803

Question: And the relative viability (NCI-H441; first compound 0.03162 µM)?
Answer: 0.684

Question: What about the relative viability (NCI-H441; first compound 0.1 µM) of the same compound?
Answer: 0.721

Question: And the relative viability (NCI-H441; first compound 0.3162 µM)?
Answer: 0.479

Question: And the relative viability (NCI-H441; first compound 1 µM)?
Answer: 1.1

Question: And the relative viability (BEN; first compound 0.01 µM)?
Answer: 0.0635

Question: And the relative viability (BEN; first compound 0.03162 µM)?
Answer: 0.0616

Question: What about the relative viability (BEN; first compound 0.1 µM) of the same compound?
Answer: 0.0641

Question: What about the relative viability (BEN; first compound 0.3162 µM) of the same compound?
Answer: 0.0656

Question: What about the relative viability (BEN; first compound 1 µM) of the same compound?
Answer: 0.0695

Question: And the relative viability (NCI-H3122; first compound 0.01 µM)?
Answer: 0.97

Question: What about the relative viability (NCI-H3122; first compound 0.03162 µM) of the same compound?
Answer: 1.03

Question: And the relative viability (NCI-H3122; first compound 0.1 µM)?
Answer: 1.01

Question: And the relative viability (NCI-H3122; first compound 0.3162 µM)?
Answer: 0.995

Question: What about the relative viability (NCI-H3122; first compound 1 µM) of the same compound?
Answer: 1.05
